Tests used:
[1] = test system: HIV-1IIIB infected MT-4 cells; test: Antiviral activity in HIV-1IIIB infected MT-4 cells (MTT method); assay type: cell-based; settings: Human immunodeficiency virus 1, MT4, 120 h, MOI 0.01, MT-4 cells, 5 days, read-out: EC50 (concentration required for inhibition of cell disorder due to HIV infection by 50%)
Description: Immediately after infection, HIV-1IIIB infected MT-4 cells (3.0×10^4/well, MOI (Multiplicity of infection): 0.01) were added to a 96-well microtiter plate together with the test compounds having different concentrations. The cells were cultured in a carbon dioxide incubator at 37° C. for 5 days, and the number of living cells was measured in accordance with the MTT (tetrazolium) method ([…] et al., J. of Virol. Method, 20, 309-321 (1988)). The antiviral activity is represented the concentration required for inhibition of cell disorder due to HIV infection by 50% (EC50: 50% Effective Concentration), and expressed using μM, and the results are shown in Table 2.

[2] = target: T1, receptors CXCR4 (Homo sapiens, UniProt P61073); test: Inhibition of 125I-SDF-1 binding to CXCR4 on MT4 cells; settings: 125I-SDF-1 ligand, 2 hours under ice-cooling, read-out: Inhibition rate (binding-inhibition %)
T1 construct: endogenous in cells; host or cells: MT4 cells
Description: MT4 cells (5×10^6/0.2 ml/well) were cultured on a 24-well microtiter plate. After the cells were incubated for 24 hours at 37° C. in a carbon dioxide gas incubator, a culture medium was replaced with a buffer solution (0.1% BSA-containing RPMI-1640). Together with a ligand (^125I-SDF-1″, specific activity: 2,200 Ci/mmol; manufactured by Daiichi Chemicals Co., Ltd. (Tokyo)), test materials of various concentrations were subjected to a binding reaction for 2 hours under ice-cooling.

[3] = test system: ICR mice (male); settings: mouse, in vivo, 4 days
Description: The acute toxicity of the aforementioned compound was examined. Specifically, 7-week-old ICR mice (male) were divided into several groups (4 or 5 mice in each group), and the mice were bred for 1 week for habituation. Subsequently, each of the compounds of Examples was dissolved in distilled water or physiological saline, and the solution was administered to the mice via tail vein (dose: 15 mg/kg) twice a day for 4 days. On the fifth day, dead mice were counted.

T1 sequence (P61073 whole entry): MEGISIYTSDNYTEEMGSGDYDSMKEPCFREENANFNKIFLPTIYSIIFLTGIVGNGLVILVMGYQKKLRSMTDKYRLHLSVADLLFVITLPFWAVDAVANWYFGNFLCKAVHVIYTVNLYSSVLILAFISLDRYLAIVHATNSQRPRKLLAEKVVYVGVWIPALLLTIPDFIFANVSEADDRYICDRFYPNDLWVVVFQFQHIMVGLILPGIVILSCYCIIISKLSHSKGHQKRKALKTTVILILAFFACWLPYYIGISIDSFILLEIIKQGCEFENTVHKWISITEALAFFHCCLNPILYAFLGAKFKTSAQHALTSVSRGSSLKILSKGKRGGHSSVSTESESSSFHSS

Row | Compound | EC50 [1] [nM] | inhibition at 0.1 µM [2] [%] | Dead mice/test mice [3]
1 | Cc1ccccc1CNCCC[C@H](NC(=O)c1ccc(CNCc2ncc[nH]2)cc1)C(=O)N[C@@H](C)c1cccc2ccccc12 [Compound No. 1, N-[(S)-1-(1-naphthyl)ethyl]-5-(2-methylbenzyl)amino-2-(S)-[4-[N-(imidazol-2-ylmethyl)aminomethyl]benzoyl]aminopentanoylamide] | 58 | 100 | 
2 | CC(C)CN(CCO)CCC[C@H](NC(=O)c1ccc(CNCc2ncc[nH]2)cc1)C(=O)N[C@@H](C)c1cccc2ccccc12 [Compound No. 66, N-[(S)-1-(1-naphthyl)ethyl]-5-(N-isobutyl-(2-hydroxyethyl)amino)-2-(S)-[4-[N-(imidazol-2-ylmethyl)aminomethyl]benzoyl]aminopentanoylamide] | 20 | 90.6 | 0/5
3 | C[C@H](NC(=O)[C@H](CCCNC1CCCCC1)NC(=O)c1ccc(CNCc2ncc[nH]2)cc1)c1cccc2ccccc12 [Compound No. 27, N-[(S)-1-(1-naphthyl)ethyl]-5-cyclohexylamino-2-(S)-[4-[N-(imidazol-2-ylmethyl)aminomethyl]benzoyl]aminopentanoylamide] |  | 97 | 
4 | C/N=C(\N)SCCC[C@H](NC(=O)c1ccc(CNCc2ccccn2)cc1)C(=O)N[C@@H](C)c1cccc2ccccc12 [Compound No. 74, N-[(S)-1-(1-naphthyl)ethyl]-5-(N-methylsulfinamidino)-2-(S)-[4-[N-(pyridin-2-ylmethyl)aminomethyl]benzoyl]aminopentanoylamide] | 46.1 |  | 0/5
5 | CCCN(CCC)CCC[C@H](NC(=O)c1ccc(CNCc2ncc[nH]2)cc1)C(=O)N[C@@H](C)c1cccc2ccccc12 [Compound No. 34, N-[(S)-1-(1-naphthyl)ethyl]-5-di-n-propylamino-2-(S)-[4-[N-(imidazol-2-ylmethyl)aminomethyl]benzoyl]aminopentanoylamide] | 15 | 98 | 0/5
6 | Cc1cccnc1CNCCC[C@H](NC(=O)c1ccc(CNCc2ncc[nH]2)cc1)C(=O)N[C@@H](C)c1cccc2ccccc12 [Compound No. 9, N-[(S)-1-(1-naphthyl)ethyl]-5-(3-methylpyridin-2-yl)methylamino-2-(S)-[4-[N-(imidazol-2-ylmethyl)aminomethyl]benzoyl]aminopentanoylamide] | 55.3 |  | 0/5
7 | CCc1ccccc1CNCCC[C@H](NC(=O)c1ccc(CNCc2ncc[nH]2)cc1)C(=O)N[C@@H](C)c1cccc2ccccc12 [Compound No. 22, N-[(S)-1-(1-naphthyl)ethyl]-5-(2-ethylbenzyl)amino-2-(S)-[4-[N-(imidazol-2-ylmethyl)aminomethyl]benzoyl]aminopentanoylamide] | 30 |  | 
8 | CC(C)CN(CCC[C@H](NC(=O)c1ccc(CNCc2ncc[nH]2)cc1)C(=O)N[C@@H](C)c1cccc2ccccc12)CC(C)C [Compound No. 33, N-[(S)-1-(1-naphthyl)ethyl]-5-diisobutylamino-2-(S)-[4-[N-(imidazol-2-ylmethyl)aminomethyl]benzoyl]aminopentanoylamide] | 6.7 | 100 | 0/5
9 | COc1ccccc1CNCCC[C@H](NC(=O)c1ccc(CNCc2ncc[nH]2)cc1)C(=O)N[C@@H](C)c1cccc2ccccc12 [Compound No. 2, N-[(S)-1-(1-naphthyl)ethyl]-5-(2-methoxybenzyl)amino-2-(S)-[4-[N-(imidazol-2-ylmethyl)aminomethyl]benzoyl]aminopentanoylamide] | 99.6 | 97.6 | 
10 | C[C@H](NC(=O)[C@H](CCCNC1CCCc2ccccc21)NC(=O)c1ccc(CNCc2ncc[nH]2)cc1)c1cccc2ccccc12 (stereo partly drawn) [Compound No. 28, N-[(S)-1-(1-naphthyl)ethyl]-5-(1,2,3,4-tetrahydronaphthalen-1-yl)amino-2-(S)-[4-[N-(imidazol-2-ylmethyl)aminomethyl]benzoyl]aminopentanoylamide] |  | 100 | 
11 | CCCN(CCC[C@H](NC(=O)c1ccc(CNCc2ncc[nH]2)cc1)C(=O)N[C@@H](C)c1cccc2ccccc12)CC(C)C [Compound No. 39, N-[(S)-1-(1-naphthyl)ethyl]-5-(N-n-propyl-isobutylamino)-2-(S)-[4-[N-(imidazol-2-ylmethyl)aminomethyl]benzoyl]aminopentanoylamide] | 14.5 |  | 0/5
12 | C[C@H](NC(=O)[C@H](CCCSC(=N)N)NC(=O)c1ccc(CNCc2ccccn2)cc1)c1cccc2ccccc12 [Compound No. 73, N-[(S)-1-(1-naphthyl)ethyl]-5-sulfinamidino-2-(S)-[4-[N-(pyridin-2-ylmethyl)aminomethyl]benzoyl]aminopentanoylamide] | 69.1 | 93.5 | 0/5
13 | C[C@H](NC(=O)[C@H](CCCN(C)C1CCCCC1)NC(=O)c1ccc(CNCc2ncc[nH]2)cc1)c1cccc2ccccc12 [Compound No. 42, N-[(S)-1-(1-naphthyl)ethyl]-5-(N-methyl-cyclohexylamino)-2-(S)-[4-[N-(imidazol-2-ylmethyl)aminomethyl]benzoyl]aminopentanoylamide] | 14.5 |  | 0/5
14 | C[C@H](NC(=O)[C@H](CCCN1CCCCCC1)NC(=O)c1ccc(CNCc2ncc[nH]2)cc1)c1cccc2ccccc12 [Compound No. 55, N-[(S)-1-(1-naphthyl)ethyl]-5-(hexamethyleneimin-1-yl)-2-(S)-[4-[N-(imidazol-2-ylmethyl)aminomethyl]benzoyl]aminopentanoylamide] | 29 | 89.3 | 0/5
15 | C[C@H](NC(=O)[C@H](CCCNC1CCc2ccccc21)NC(=O)c1ccc(CNCc2ncc[nH]2)cc1)c1cccc2ccccc12 (stereo partly drawn) [Compound No. 29, N-[(S)-1-(1-naphthyl)ethyl]-5-(indan-1-yl)amino-2-(S)-[4-[N-(imidazol-2-ylmethyl)aminomethyl]benzoyl]aminopentanoylamide] |  | 100 | 0/5

From patent US20040254221A1, “Novel Nitrogenous Compound and use thereof” (priority 2001, published 2004)
